Laboratory results from PubChem BioAssay AID2060494 (Molecular Pharmacology Branch, DTP, NCI, 2025).

Tested on: 435261-313-R-J1-PDC complex spheroid viability
Experiment: Anticancer human tumor 435261-313-R-J1-PDC patient-derived colon adenocarcinoma cell line growth inhibition [GQUAD]
Conditions: for IC50: curve of first compound; for viability, T/C: stronger effect = lower value
Method in brief: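 Viability of tumor cells grown as complex spheroids with endothelial and stromal cells, exposed to drug combinations. Top concentration at or near clinical Cmax (else 10 microM), diluted in half-log increments.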

[1] = second compound 0.0316 µM, first compound 0.0316 µM
[2] = second compound 0.0316 µM, first compound 0.316 µM
[3] = second compound 0.1 µM, first compound 0.0316 µM
[4] = second compound 0.1 µM, first compound 0.316 µM
[5] = second compound 0.316 µM, first compound 0.0316 µM
[6] = second compound 0.316 µM, first compound 0.316 µM
[7] = second compound 1 µM, first compound 0.0316 µM
[8] = second compound 1 µM, first compound 0.316 µM
[9] = second compound 3.16 µM, first compound 0.0316 µM
[10] = second compound 3.16 µM, first compound 0.316 µM
[11] = second compound 10 µM, first compound 0.0316 µM
[12] = second compound 10 µM, first compound 0.316 µM
[13] = second compound 0.0316 µM, first compound 0.000999 µM
[14] = second compound 0.0316 µM, first compound 0.00316 µM
[15] = second compound 0.0316 µM, first compound 0.00999 µM
[16] = second compound 0.0316 µM, first compound 0.0999 µM
[17] = second compound 0.1 µM, first compound 0.000999 µM
[18] = second compound 0.1 µM, first compound 0.00316 µM
[19] = second compound 0.1 µM, first compound 0.00999 µM
[20] = second compound 0.1 µM, first compound 0.0999 µM
[21] = second compound 0.316 µM, first compound 0.000999 µM
[22] = second compound 0.316 µM, first compound 0.00316 µM
[23] = second compound 0.316 µM, first compound 0.00999 µM
[24] = second compound 0.316 µM, first compound 0.0999 µM
[25] = second compound 1 µM, first compound 0.000999 µM
[26] = second compound 1 µM, first compound 0.00316 µM
[27] = second compound 1 µM, first compound 0.00999 µM
[28] = second compound 1 µM, first compound 0.0999 µM
[29] = second compound 3.16 µM, first compound 0.000999 µM
[30] = second compound 3.16 µM, first compound 0.00316 µM
[31] = second compound 3.16 µM, first compound 0.00999 µM
[32] = second compound 3.16 µM, first compound 0.0999 µM
[33] = second compound 10 µM, first compound 0.000999 µM
[34] = second compound 10 µM, first compound 0.00316 µM
[35] = second compound 10 µM, first compound 0.00999 µM
[36] = second compound 10 µM, first compound 0.0999 µM
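Further: spheroids exposed to the agents for seven days before readout.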
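Wherever viability, T/C is given: percent of vehicle control viability with DMSO wells as 100%.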

In the case of C=CC(=O)N1CCN(c2nc(=O)n(-c3c(C)ccnc3C(C)C)c3nc(-c4c(O)cccc4F)c(F)cc23)C(C)C1 (stereo unspecified) + Cc1[nH]c2ccc(F)cc2c1-c1nc2c3cccnc3c3ncccc3c2[nH]1, the IC50 (second compound 0.0316 µM) is reported as > 10000 nM, the IC50 (second compound 0.1 µM) is reported as > 10000 nM and the IC50 (second compound 0.316 µM) is reported as > 10000 nM. The IC50 (second compound 1 µM) was > 10000 nM, the IC50 (second compound 3.16 µM) was < 31.6 nM and the IC50 (second compound 10 µM) was < 31.6 nM. It also gave a viability, T/C [1] of 98.7%, a viability, T/C (second compound 0.0316 µM, first compound 0.1 µM) of 69.3% and a viability, T/C [2] of 116%. It also gave a viability, T/C (second compound 0.0316 µM, first compound 1 µM) of 126%, a viability, T/C (second compound 0.0316 µM, first compound 3.16 µM) of 127% and a viability, T/C (second compound 0.0316 µM, first compound 10 µM) of 83.8%. For the same molecule, the viability, T/C [3] was 85%, the viability, T/C (second compound 0.1 µM, first compound 0.1 µM) was 131% and the viability, T/C [4] was 92.8%. For the same molecule, the viability, T/C (second compound 0.1 µM, first compound 1 µM) was 109%, the viability, T/C (second compound 0.1 µM, first compound 3.16 µM) was 129% and the viability, T/C (second compound 0.1 µM, first compound 10 µM) was 97.8%. It also gave a viability, T/C [5] of 97.6%, a viability, T/C (second compound 0.316 µM, first compound 0.1 µM) of 106% and a viability, T/C [6] of 88.7%. It also gave a viability, T/C (second compound 0.316 µM, first compound 1 µM) of 73.9%, a viability, T/C (second compound 0.316 µM, first compound 3.16 µM) of 122% and a viability, T/C (second compound 0.316 µM, first compound 10 µM) of 104%. The viability, T/C [7] was 78.4%, the viability, T/C (second compound 1 µM, first compound 0.1 µM) was 84% and the viability, T/C [8] was 74.2%. For the same molecule, the viability, T/C (second compound 1 µM, first compound 1 µM) was 71.2%, the viability, T/C (second compound 1 µM, first compound 3.16 µM) was 61% and the viability, T/C (second compound 1 µM, first compound 10 µM) was 80.4%. The viability, T/C [9] was 41.5%, the viability, T/C (second compound 3.16 µM, first compound 0.1 µM) was 27.6% and the viability, T/C [10] was 28.1%. It also gave a viability, T/C (second compound 3.16 µM, first compound 1 µM) of 42.5%, a viability, T/C (second compound 3.16 µM, first compound 3.16 µM) of 54.2% and a viability, T/C (second compound 3.16 µM, first compound 10 µM) of 32%. For the same molecule, the viability, T/C [11] was 22.4%, the viability, T/C (second compound 10 µM, first compound 0.1 µM) was 24.8% and the viability, T/C [12] was 24.8%. The viability, T/C (second compound 10 µM, first compound 1 µM) was 16.2%, the viability, T/C (second compound 10 µM, first compound 3.16 µM) was 28.3% and the viability, T/C (second compound 10 µM, first compound 10 µM) was 22.4%.
With CC[C@@]1(O)C(=O)OCc2c1cc1n(c2=O)Cc2cc3c(CN(C)C)c(O)ccc3nc2-1 + Cc1[nH]c2ccc(F)cc2c1-c1nc2c3cccnc3c3ncccc3c2[nH]1 the IC50 (second compound 0.0316 µM) was > 316 nM, the IC50 (second compound 0.1 µM) was > 316 nM and the IC50 (second compound 0.316 µM) was > 316 nM. For the same molecule, the IC50 (second compound 1 µM) was > 316 nM, the IC50 (second compound 3.16 µM) was < 0.999 nM and the IC50 (second compound 10 µM) was < 0.999 nM. It also gave a viability, T/C [13] of 90.1%, a viability, T/C [14] of 76.8% and a viability, T/C [15] of 84.8%. The viability, T/C [1] was 74.6%, the viability, T/C [16] was 72.9% and the viability, T/C [2] was 69%. The viability, T/C [17] was 106%, the viability, T/C [18] was 74.9% and the viability, T/C [19] was 108%. The viability, T/C [3] was 73.6%, the viability, T/C [20] was 72.8% and the viability, T/C [4] was 59.8%. For the same molecule, the viability, T/C [21] was 89.3%, the viability, T/C [22] was 80% and the viability, T/C [23] was 114%. It also gave a viability, T/C [5] of 59.3%, a viability, T/C [24] of 58.7% and a viability, T/C [6] of 52.6%. It also gave a viability, T/C [25] of 41.9%, a viability, T/C [26] of 67.6% and a viability, T/C [27] of 67.9%. It also gave a viability, T/C [7] of 64.5%, a viability, T/C [28] of 54.2% and a viability, T/C [8] of 47.1%. The viability, T/C [29] was 41.4%, the viability, T/C [30] was 34.2% and the viability, T/C [31] was 37.4%. The viability, T/C [9] was 28.2%, the viability, T/C [32] was 23.9% and the viability, T/C [10] was 33.8%. For the same molecule, the viability, T/C [33] was 19.3%, the viability, T/C [34] was 25.4% and the viability, T/C [35] was 18.3%. For the same molecule, the viability, T/C [11] was 24.9%, the viability, T/C [36] was 20.7% and the viability, T/C [12] was 17.9%.
CCc1c2c(nc3ccc(O)cc13)-c1cc3c(c(=O)n1C2)COC(=O)[C@]3(O)CC + Cc1[nH]c2ccc(F)cc2c1-c1nc2c3cccnc3c3ncccc3c2[nH]1 gave an IC50 (second compound 0.0316 µM) of 21.2 nM, an IC50 (second compound 0.1 µM) of 23.2 nM and an IC50 (second compound 0.316 µM) of 23.8 nM. For the same molecule, the IC50 (second compound 1 µM) was < 0.999 nM, the IC50 (second compound 3.16 µM) was < 0.999 nM and the IC50 (second compound 10 µM) was < 0.999 nM. The viability, T/C [13] was 119%, the viability, T/C [14] was 62.1% and the viability, T/C [15] was 67%. The viability, T/C [1] was 46.7%, the viability, T/C [16] was 51.3% and the viability, T/C [2] was 33.8%. The viability, T/C [17] was 93.9%, the viability, T/C [18] was 64.4% and the viability, T/C [19] was 58.5%. For the same molecule, the viability, T/C [3] was 49.4%, the viability, T/C [20] was 46.5% and the viability, T/C [4] was 33.9%. For the same molecule, the viability, T/C [21] was 53.6%, the viability, T/C [22] was 51.5% and the viability, T/C [23] was 53.2%. For the same molecule, the viability, T/C [5] was 49.1%, the viability, T/C [24] was 31.8% and the viability, T/C [6] was 29.7%. It also gave a viability, T/C [25] of 45.6%, a viability, T/C [26] of 55.6% and a viability, T/C [27] of 32.9%. The viability, T/C [7] was 34%, the viability, T/C [28] was 33.1% and the viability, T/C [8] was 23.8%. The viability, T/C [29] was 32.8%, the viability, T/C [30] was 30.6% and the viability, T/C [31] was 35.4%. It also gave a viability, T/C [9] of 24%, a viability, T/C [32] of 20.1% and a viability, T/C [10] of 21.2%. The viability, T/C [33] was 22.2%, the viability, T/C [34] was 18.8% and the viability, T/C [35] was 25.3%. For the same molecule, the viability, T/C [11] was 16.7%, the viability, T/C [36] was 16.1% and the viability, T/C [12] was 17.3%.
